Patent US6964949B2, “Pharmaceutical compositions for promoting the growth of gram-positive bacilli and increasing the acidity in the vagina and the use thereof” (Shanghai Jiao Da Onlly Co., Ltd., priority 2000, dated 2005)

Key:
Assay type in all cases: cell-based
[1] = system: Gram-positive cocci; experiment: Experimental Example 1: bacterial vaginosis specimen suspension cultured in the composition, Gram smear; details: 10.0% sucrose, 1.0% yeast extract, 1.6% xanthan gum, pH 5.0, anaerobic, 37° C.
Description: (§1) • (1) The preparation of the composition: Sucrose was used to prepare the following composition according to the method mentioned above: sucrose 10.0% (W/V), yeast extract 1.0% (W/V), Xanthan gum 1.6% (W/V), pH 5.0; then filled the composition into the tubes after sterilization, with each tube containing 5 ml, and pre-reduced for use. • (2) Specimen suspension: Vaginal secretion was taken from one of the patients suffering from typical bacterial vaginosis with a cotton swab, then the swab was washed in 2 ml sterilized Trypcase-soy Broth immediately, and thus the specimen suspension was ready. […] The tubes were placed in an incubator for cultivation, at 37° C., anaerobically. Then, culture samples were taken from the tubes at 10 hours and 24 hours later respectively. The Gram smears of the samples were observed and the pH values of the samples were measured.

[2] = system: Gram-negative cocci; experiment: as above; details: 10.0% sucrose, 1.0% yeast extract, 1.6% xanthan gum, pH 5.0, anaerobic, 37° C.
Description: as §1

[3] = system: Gram-negative bacilli; experiment: as above; details: 10.0% sucrose, 1.0% yeast extract, 1.6% xanthan gum, pH 5.0, anaerobic, 37° C.
Description: as §1

[4] = system: Gram-positive bacilli; experiment: as above; details: 10.0% sucrose, 1.0% yeast extract, 1.6% xanthan gum, pH 5.0, anaerobic, 37° C.
Description: as §1

[5] = system: vaginal secretion specimen of a patient suffering from typical bacterial vaginosis; experiment: Experiment Example 5: pH of culture samples (production of acids); details: 10.0% maltose, 1.0% yeast extract, 1.6% xanthan gum
Description: (§2) • (1)The preparation of the compositions: Maltose was used to prepare the following compositions according to the method mentioned above: • A. 10.0% maltose, 1.0% yeast extract, 1.6% xanthan gum, pH adjusted to 4.4; • B. 10.0% maltose, 1.0% yeast extract, 1.6% xanthan gum, pH adjusted to 4.8; • C. 10.0% maltose, 1.0% yeast extract, 1.6% xanthan gum, pH adjusted to 5.1; • D. 10.0% maltose, 1.0% yeast extract, 1.6% xanthan gum, pH adjusted to 5.4; • E. 10.0% maltose, 1.0% yeast extract, 1.6% xanthan gum, pH adjusted to 5.8; • F. 10.0% maltose, 1.0% yeast extract, 1.6% xanthan gum, pH adjusted to 6.4; • G. 10.0% maltose, 1.0% yeast extract, 1.6% xanthan gum, pH adjusted to 6.8; • H. 10.0% maltose, 1.0% yeast extract, 1.6% xanthan gum, pH adjusted to 7.2; • (2)The preparation of the test tubes: Compositions prepared above were filled into the test tubes, with each tube containing 5 ml, sterilized, and kept until use for experiments. • (3)Specimen suspension: Vaginal secretion was taken from one of the patients suffering from typical bacterial vaginosis with a cotton swab, then the swab was washed in 2 ml sterilized Trypcase-soy Broth immediately, and thus the specimen suspension was ready. […] Then the tubes were placed in a candle jar and cultivated at 37° C. After 24 hours and 48 hours' culture, culture samples were taken respectively from each of the tubes, then the Gram smears of the samples were observed and the pH values of culture samples were tested.

[6] = system: Gram-negative bacilli; experiment: Experiment Example 5: influence of composition pH (10.0% maltose), specimen culture, Gram smear; details: 1.0% yeast extract, 1.6% xanthan gum
Description: as §2

[7] = system: Gram-positive bacilli; experiment: as above; details: 1.0% yeast extract, 1.6% xanthan gum
Description: as §2

[8] = pH of the composition 4.4, 24 hours
[9] = pH of the composition 4.4, 48 hours
[10] = pH of the composition 4.8, 24 hours
[11] = pH of the composition 4.8, 48 hours
[12] = pH of the composition 5.1, 24 hours
[13] = pH of the composition 5.4, 24 hours
[14] = pH of the composition 5.8, 24 hours
[15] = pH of the composition 5.8, 48 hours
[16] = pH of the composition 6.4, 24 hours
[17] = pH of the composition 6.4, 48 hours
[18] = pH of the composition 6.8, 24 hours
[19] = pH of the composition 6.8, 48 hours
[20] = pH of the composition 7.2, 24 hours
[21] = pH of the composition 7.2, 48 hours

## OC[C@H]1O[C@@](CO)(O[C@H]2O[C@H](CO)[C@@H](O)[C@H](O)[C@H]2O)[C@@H](O)[C@@H]1O [Sucrose, sucrose]
[1]
  Bacteria G + c (Gram-positive cocci), 24 hours-culture: G + C, ++ (About 10-99 bacteria per field of vision under oil-immersion lens)
[2]
  Bacteria G − c (Gram-negative cocci), 24 hours-culture: G − c, + (1-9 bacteria per field of vision under oil-immersion lens)
[3]; 10 hours
  Bacteria G − b (Gram-negative bacilli), 10 hours-culture: G − b, ++ (About 10-99 bacteria per field of vision under oil-immersion lens)
[3]; 24 hours
  Bacteria G − b (Gram-negative bacilli), 24 hours-culture: G − b, ++ (About 10-99 bacteria per field of vision under oil-immersion lens)
[4]; 10 hours
  Bacteria G + b (Gram-positive bacilli), 10 hours-culture: G + b, +++ (About 100 bacteria or more per field vision under oil-immersion lens, even uncountable)
[4]; 24 hours
  Bacteria G + b (Gram-positive bacilli), 24 hours-culture: G + b, ++++

## OC[C@H]1O[C@H](O[C@H]2[C@H](O)[C@@H](O)[C@H](O)O[C@@H]2CO)[C@H](O)[C@@H](O)[C@@H]1O [Maltose, maltose]
[5]; pH of the composition 4.4
  pH, 24 hours culture: 4.4
  pH, 48 hours culture: 4.4
[5]; pH of the composition 4.8
  pH, 24 hours culture: 4.8
  pH, 48 hours culture: 4.4-4.8
[5]; pH of the composition 5.1
  pH, 24 hours culture: 4.6
  pH, 48 hours culture: 4.4-4.6
[5]; pH of the composition 5.4
  pH, 24 hours culture: 5.4
  pH, 48 hours culture: 4.1-4.4
[5]; pH of the composition 5.8
  pH, 24 hours culture: 4.8
  pH, 48 hours culture: 4.1
[5]; pH of the composition 6.4
  pH, 24 hours culture: 4.4
  pH, 48 hours culture: 4.1
[5]; pH of the composition 6.8
  pH, 24 hours culture: 5.4
  pH, 48 hours culture: 4.4
[5]; pH of the composition 7.2
  pH, 24 hours culture: 5.4
  pH, 48 hours culture: 4.1
[6]; [8]
  Bacteria G − b (Gram-negative bacilli), 24 hours culture: G − b, ++ (About 10-99 bacteria per field of vision under oil-immersion lens)
[6]; [9]
  Bacteria G − b (Gram-negative bacilli), 48 hours culture: G − b, ++ (About 10-99 bacteria per field of vision under oil-immersion lens)
[6]; [10]
  Bacteria G − b (Gram-negative bacilli), 24 hours culture: G − b, ++ (About 10-99 bacteria per field of vision under oil-immersion lens)
[6]; [11]
  Bacteria G − b (Gram-negative bacilli), 48 hours culture: G − b, ++ (About 10-99 bacteria per field of vision under oil-immersion lens)
[6]; [12]
  Bacteria G − b (Gram-negative bacilli), 24 hours culture: G − b, ++ (About 10-99 bacteria per field of vision under oil-immersion lens)
[6]; pH of the composition 5.1, 48 hours
  Bacteria G − b (Gram-negative bacilli), 48 hours culture: G − b, ++ (About 10-99 bacteria per field of vision under oil-immersion lens)
[6]; [13]
  Bacteria G − b (Gram-negative bacilli), 24 hours culture: G − b, + (1-9 bacteria per field of vision under oil-immersion lens)
[6]; pH of the composition 5.4, 48 hours
  Bacteria G − b (Gram-negative bacilli), 48 hours culture: G − b, ++ (About 10-99 bacteria per field of vision under oil-immersion lens)
[6]; [14]
  Bacteria G − b (Gram-negative bacilli), 24 hours culture: G − b, ++ (About 10-99 bacteria per field of vision under oil-immersion lens)
[6]; [15]
  Bacteria G − b (Gram-negative bacilli), 48 hours culture: G − b, ++ (About 10-99 bacteria per field of vision under oil-immersion lens)
[6]; [16]
  Bacteria G − b (Gram-negative bacilli), 24 hours culture: G − b, ++ (About 10-99 bacteria per field of vision under oil-immersion lens)
[6]; [17]
  Bacteria G − b (Gram-negative bacilli), 48 hours culture: G − b, ++ (About 10-99 bacteria per field of vision under oil-immersion lens)
[6]; [18]
  Bacteria G − b (Gram-negative bacilli), 24 hours culture: G − b, ++ (About 10-99 bacteria per field of vision under oil-immersion lens)
[6]; [19]
  Bacteria G − b (Gram-negative bacilli), 48 hours culture: G − b, ++ (About 10-99 bacteria per field of vision under oil-immersion lens)
[6]; [20]
  Bacteria G − b (Gram-negative bacilli), 24 hours culture: G − b, + (1-9 bacteria per field of vision under oil-immersion lens)
[6]; [21]
  Bacteria G − b (Gram-negative bacilli), 48 hours culture: G − b, ++ (About 10-99 bacteria per field of vision under oil-immersion lens)
[7]; [8]
  Bacteria G + b (Gram-positive bacilli), 24 hours culture: G + b, −˜+
[7]; [9]
  Bacteria G + b (Gram-positive bacilli), 48 hours culture: G + b, −˜+
[7]; [10]
  Bacteria G + b (Gram-positive bacilli), 24 hours culture: G + b, + (1-9 bacteria per field of vision under oil-immersion lens)
[7]; [11]
  Bacteria G + b (Gram-positive bacilli), 48 hours culture: G + b, + (1-9 bacteria per field of vision under oil-immersion lens)
[7]; [12]
  Bacteria G + b (Gram-positive bacilli), 24 hours culture: G + b, + (1-9 bacteria per field of vision under oil-immersion lens)
[7]; [13]
  Bacteria G + b (Gram-positive bacilli), 24 hours culture: G + b, +++ (About 100 bacteria or more per field vision under oil-immersion lens, even uncountable)
[7]; [14]
  Bacteria G + b (Gram-positive bacilli), 24 hours culture: G + b, ++ (About 10-99 bacteria per field of vision under oil-immersion lens)
[7]; [15]
  Bacteria G + b (Gram-positive bacilli), 48 hours culture: G + b, +++ (About 100 bacteria or more per field vision under oil-immersion lens, even uncountable)
[7]; [16]
  Bacteria G + b (Gram-positive bacilli), 24 hours culture: G + b, + (1-9 bacteria per field of vision under oil-immersion lens)
[7]; [17]
  Bacteria G + b (Gram-positive bacilli), 48 hours culture: G + b, +++ (About 100 bacteria or more per field vision under oil-immersion lens, even uncountable)
[7]; [18]
  Bacteria G + b (Gram-positive bacilli), 24 hours culture: G + b, ++ (About 10-99 bacteria per field of vision under oil-immersion lens)
[7]; [19]
  Bacteria G + b (Gram-positive bacilli), 48 hours culture: G + b, +++ (About 100 bacteria or more per field vision under oil-immersion lens, even uncountable)
[7]; [20]
  Bacteria G + b (Gram-positive bacilli), 24 hours culture: G + b, ++ (About 10-99 bacteria per field of vision under oil-immersion lens)
[7]; [21]
  Bacteria G + b (Gram-positive bacilli), 48 hours culture: G + b, +++ (About 100 bacteria or more per field vision under oil-immersion lens, even uncountable)
